Assay [1] relates to Human alphaherpesvirus 1. The experiment in a line: Polymerizing activity of exonuclase deficient HSV1 DNA polymerase UL42 D368A mutant assessed as rate of nucleotide incorporation by pre-steady state single turnover assay.
A short description of assay [2]: Binding affinity to exonuclase deficient HSV1 DNA polymerase UL42 D368A mutant. Also on record: species or system Human alphaherpesvirus 1.
Assay [3] has as its system Human alphaherpesvirus 1. The experiment in a line: Ratio of polymerization constant K to Kd for exonuclase deficient HSV1 DNA polymerase UL42 D368A mutant.
Assay [4] has as its system T1, DNA polymerase subunit gamma-1 (Homo sapiens), P54098 [E200A].
T1 sequence (whole entry): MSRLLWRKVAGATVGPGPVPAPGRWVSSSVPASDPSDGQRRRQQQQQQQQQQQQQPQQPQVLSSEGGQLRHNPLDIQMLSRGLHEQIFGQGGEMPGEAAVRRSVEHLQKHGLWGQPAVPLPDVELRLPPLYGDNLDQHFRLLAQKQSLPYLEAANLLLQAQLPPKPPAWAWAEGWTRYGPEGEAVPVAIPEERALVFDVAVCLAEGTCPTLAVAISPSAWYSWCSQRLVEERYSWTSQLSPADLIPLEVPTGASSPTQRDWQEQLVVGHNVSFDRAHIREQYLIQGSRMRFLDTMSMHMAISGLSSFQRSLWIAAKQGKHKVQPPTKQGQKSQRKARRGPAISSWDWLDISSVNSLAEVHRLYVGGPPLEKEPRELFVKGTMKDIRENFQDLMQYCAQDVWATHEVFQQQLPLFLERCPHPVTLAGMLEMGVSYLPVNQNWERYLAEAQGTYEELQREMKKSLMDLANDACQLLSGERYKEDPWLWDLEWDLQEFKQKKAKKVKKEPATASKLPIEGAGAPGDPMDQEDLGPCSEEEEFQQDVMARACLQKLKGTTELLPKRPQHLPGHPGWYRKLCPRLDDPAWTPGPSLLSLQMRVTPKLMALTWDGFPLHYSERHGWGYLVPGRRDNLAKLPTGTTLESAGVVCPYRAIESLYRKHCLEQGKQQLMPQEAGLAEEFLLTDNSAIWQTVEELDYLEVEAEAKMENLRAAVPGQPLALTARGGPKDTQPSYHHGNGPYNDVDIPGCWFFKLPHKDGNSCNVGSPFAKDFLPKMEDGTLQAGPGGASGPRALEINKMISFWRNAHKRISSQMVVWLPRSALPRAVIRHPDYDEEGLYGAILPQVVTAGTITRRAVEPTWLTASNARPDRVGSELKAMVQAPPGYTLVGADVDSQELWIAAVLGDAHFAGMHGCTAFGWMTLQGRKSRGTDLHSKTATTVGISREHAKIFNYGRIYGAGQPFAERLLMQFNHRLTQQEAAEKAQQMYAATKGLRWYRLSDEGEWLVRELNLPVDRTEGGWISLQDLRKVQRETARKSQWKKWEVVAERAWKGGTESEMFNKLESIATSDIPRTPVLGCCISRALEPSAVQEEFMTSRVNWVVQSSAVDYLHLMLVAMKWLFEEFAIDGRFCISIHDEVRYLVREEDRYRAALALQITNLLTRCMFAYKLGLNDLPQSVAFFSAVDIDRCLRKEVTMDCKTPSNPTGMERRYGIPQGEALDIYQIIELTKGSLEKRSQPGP
The assay can be described thus: Polymerizing activity of exonuclase deficient human recombinant DNA polymerase gamma E200A mutant assessed as rate of nucleotide incorporation by pre-steady state single nucleotide incorporation assay.

The test system is the same in assay [5]. The assay can be described thus: Ratio of polymerization constant K to Kd for human recombinant DNA polymerase gamma E200A mutant.
For assay [6], the target named is DNA polymerase subunit gamma-1 (Homo sapiens, UniProt P54098, E200A). The experiment in a line: Binding affinity to exonuclase deficient human recombinant DNA polymerase gamma E200A mutant.
Assay [7] concerns Human alphaherpesvirus 1. The experiment in a line: Activity of wild type HSV1 DNA polymerase UL42 assessed as rate of excision of compound from correctly paired DNA primer during fast phase of excision.
Assay [8] relates to Human alphaherpesvirus 1. The assay can be described thus: Activity of wild type HSV1 DNA polymerase UL42 assessed as amplitude of excision of compound from correctly paired DNA primer during fast phase of excision.
Assay [9] relates to Human alphaherpesvirus 1. The assay can be described thus: Activity of wild type HSV1 DNA polymerase UL42 assessed as rate of excision of compound from 3'-frayed DNA primer with 8 mispaired bases at 3' end during fast phase of excision.
In assay [10] the test system is Human alphaherpesvirus 1. The assay can be described thus: Activity of wild type HSV1 DNA polymerase UL42 assessed as amplitude of excision of compound from 3'-frayed DNA primer with 8 mispaired bases at 3' end during fast phase of excision.
Assay [11] has as its system Human alphaherpesvirus 1. The experiment in a line: Activity of wild type HSV1 DNA polymerase UL42 assessed as rate of excision of compound from correctly paired DNA primer during fast phase of excision in presence of 100 uM dNTPs.
The test system of assay [12] is Human alphaherpesvirus 1. The assay can be described thus: Activity of wild type HSV1 DNA […] UL42 assessed as amplitude of excision of compound from correctly paired DNA primer during fast phase of excision in presence of 100 uM dNTPs.
Assay [13] deals with Human alphaherpesvirus 1. The experiment in a line: Activity of wild type HSV1 DNA polymerase UL42 assessed as rate of excision of compound from 3'-frayed DNA primer with 8 mispaired bases at 3' end during fast phase of excision in presence of 100 uM dNTPs.
The test system of assay [14] is Human alphaherpesvirus 1. The assay can be described thus: Activity of wild type HSV1 DNA polymerase UL42 assessed as amplitude of excision of compound from 3'-frayed DNA primer with 8 mispaired bases at 3' end during fast phase of excision in presence of 100 uM dNTPs.
Assay [15] is filed under the species Homo sapiens. The experiment in a line: Activity of human wild type DNA polymerase gamma assessed as rate of excision of compound from correctly paired DNA primer during fast phase of excision.
The species named for assay [16] is Homo sapiens. The experiment in a line: Activity of human wild type DNA polymerase gamma assessed as amplitude of excision of compound from correctly paired DNA primer during fast phase of excision.
The species entered for assay [17] is Homo sapiens. The experiment in a line: Activity of human wild type DNA polymerase gamma assessed as rate of excision of compound from 3'-frayed DNA primer with 8 mispaired bases at 3' end during fast phase of excision.
Assay [18] is filed under the species Homo sapiens. The assay can be described thus: Activity of human wild type DNA polymerase gamma assessed as amplitude of excision of compound from 3'-frayed DNA primer with 8 mispaired bases at 3' end during fast phase of excision.
Assay [19] is filed under the species Homo sapiens. The assay can be described thus: Activity of human wild-type DNA polymerase gamma assessed as rate of excision of compound from correctly paired DNA primer during fast phase of excision in presence of 100 uM dNTPs.
The species entered for assay [20] is Homo sapiens. The assay can be described thus: Activity of human wild type DNA polymerase gamma assessed as amplitude of excision of compound from correctly paired DNA primer during fast phase of excision in presence of 100 uM dNTPs.
Assay [21] is filed under the species Homo sapiens. The assay can be described thus: Activity of human wild type DNA polymerase gamma assessed as rate of excision of compound from 3'-frayed DNA primer with 8 mispaired bases at 3' end during fast phase of excision in presence of 100 uM dNTPs.
For assay [22], the species on record is Homo sapiens. The experiment in a line: Activity of human wild type DNA polymerase gamma assessed as amplitude of excision of compound from 3'-frayed DNA primer with 8 mispaired bases at 3' end during fast phase of excision in presence of 100 uM dNTPs.
Assay [23] deals with Human alphaherpesvirus 1. The experiment in a line: Activity of wild type HSV1 DNA polymerase UL42 assessed as rate of excision of compound from correctly paired DNA primer during slow phase of excision.
Assay [24] deals with Human alphaherpesvirus 1. The assay can be described thus: Activity of wild type HSV1 DNA polymerase UL42 assessed as amplitude of excision of compound from correctly paired DNA primer during slow phase of excision.
The subject of assay [25] is Human alphaherpesvirus 1. The experiment in a line: Activity of wild type HSV1 DNA polymerase UL42 assessed as rate of excision of compound from 3'-frayed DNA primer with 8 mispaired bases at 3' end during slow phase of excision.
For assay [26], the system named is Human alphaherpesvirus 1. The experiment in a line: Activity of wild type HSV1 DNA polymerase UL42 assessed as amplitude of excision of compound from 3'-frayed DNA primer with 8 mispaired bases at 3' end during slow phase of excision.
Assay [27] is filed under the species Homo sapiens. The assay can be described thus: Activity of human wild type DNA polymerase gamma assessed as rate of excision of compound from correctly paired DNA primer during slow phase of excision.
The species named for assay [28] is Homo sapiens. The assay can be described thus: Activity of human wild type DNA polymerase gamma assessed as amplitude of excision of compound from correctly paired DNA primer during slow phase of excision.
Assay [29] is filed under the species Homo sapiens. The assay can be described thus: Activity of human wild-type DNA polymerase gamma assessed as rate of excision of compound from 3'-frayed DNA primer with 8 mispaired bases at 3' end during slow phase of excision.
For assay [30], the species on record is Homo sapiens. The assay can be described thus: Activity of human wild-type DNA polymerase gamma assessed as amplitude of excision of compound from 3'-frayed DNA primer with 8 mispaired bases at 3' end during slow phase of excision.

Structures are written as SMILES.

For `Nc1nc2c(ncn2[C@H]2C[C@H](O)[C@@H](COP(=O)(O)OP(=O)(O)OP(=O)(O)O)O2)c(=O)[nH]1` [DEOXYGUANOSINE TRIPHOSPHATE], the K was 640 s⁻¹ in assay [1] and 37 s⁻¹ in assay [4]. The dissociation constant Kd in assay [2] and in assay [6] was 0.8 µM each time. For the same compound, the Ratio in [3] turned out to be 80 µM⁻¹ s⁻¹; in assay [5] it was 45 µM⁻¹ s⁻¹.

In the case of `Cc1cn([C@H]2C[C@H](O)[C@@H](COP(=O)(O)OP(=O)(O)OP(=O)(O)O)O2)c(=O)[nH]c1=O`, the K in [1] was determined as 137 s⁻¹. The Ratio in assay [3] turned out to be 45 µM⁻¹ s⁻¹.

For the compound `Nc1nc(=O)c2ncn(COCCOP(=O)(O)O)c2[nH]1`, the Activity in assay [7] is 5.1 ×10⁻⁴ /s; in assay [8] it was 86 nM; in assay [9] it was above 0.3 s⁻¹; in assay [10], 90 nM; in assay [11] it was 2 ×10⁻⁴ /s; in assay [12], 85 nM. The Activity in [13] was above 0.3 s⁻¹; in [14] it was 90 nM; in assay [15], 2.1 ×10⁻³ /s; in [16] it was 97 nM; in [17], 1.3 ×10⁻³ /s; in [18] it was 94 nM. Moreover, the Activity came to 9.2 ×10⁻⁵ /s in assay [19], 91 nM in [20], 3 ×10⁻⁴ /s in assay [21] and 90 nM in assay [22].

`Nc1nc2c(ncn2COCCOP(=O)(O)OP(=O)(O)OP(=O)(O)O)c(=O)[nH]1` [ACYCLOVIR TRIPHOSPHATE]: the K in assay [1] came to 10.1 s⁻¹; in assay [4], 1.03 s⁻¹. Besides, the Kd in [2] and in assay [6] was 6 µM each time. In addition, the values for the Ratio in [3] and in assay [5] were 1.7 µM⁻¹ s⁻¹ and 0.17 µM⁻¹ s⁻¹, respectively.

`Nc1nc(O)c2ncn([C@H]3C[C@H](O)[C@@H](COP(=O)(O)O)O3)c2n1`: the Activity was 12 s⁻¹ in assay [7]; 11 nM in assay [8]; 0.25 s⁻¹ in assay [23]; 77 nM in [24]; 125 s⁻¹ in [9]; 65 nM in [10]. Moreover, the Activity in [25] worked out at 1.3 s⁻¹; in assay [26] it was 24 nM; in assay [15], 0.45 s⁻¹; in assay [16] it was 16 nM; in [27], 0.02 s⁻¹; in assay [28], 74 nM. Besides, the Activity in assay [17] worked out at 2.6 s⁻¹; in [18], 16 nM; in assay [29], 0.27 s⁻¹; in assay [30] it was 27 nM.

The term Kd denotes the equilibrium constant for the complex coming apart.

Source of the values: ChEMBL document CHEMBL1156481, “Enzymatic therapeutic index of acyclovir. Viral versus human polymerase gamma specificity” (J Biol Chem, 2007).
